Measurements published in publication PMC10069231 (RSC Advances, 2023).
Where “and” joins values, the source holds several entries; their conditions need not be identical. Equal values may be shown once. Read-outs that look alike come from different tables or passages of the source.

Columns and labels:
HepG-2 cell line = test: MTT cytotoxicity assay, HepG-2; assay type: cell-based, human; settings: read-out: In vitro cytotoxic activity IC50 HepG-2
Caco-2 cell line [1] = test: MTT cytotoxicity assay, Caco-2; settings: read-out: In vitro cytotoxic activity IC50 Caco-2
Caco-2 cell line [2] = test: Flow cytometry cell cycle analysis; assay type: cell-based, human; settings: Caco-2, treated at IC50 7.83 μM
Caco-2 cells = test: Annexin-V/propidium iodide apoptosis assay; assay type: cell-based, human
EGFR^Wt = EGFR^Wt (Homo sapiens, UniProt P00533); test: EGFR kinase assay kit; assay type: biochemical; settings: for IC50: Enzyme inhibitory activity IC50 EGFR^Wt, average of three independent tests; for inhibition at 10 µM: read-out: EGFR^Wt Inhibitory%
VEGFR-2 = VEGFR-2 (Homo sapiens, UniProt P35968); test: biochemical
Chain of VEGFR-2 (P35968 20-1356): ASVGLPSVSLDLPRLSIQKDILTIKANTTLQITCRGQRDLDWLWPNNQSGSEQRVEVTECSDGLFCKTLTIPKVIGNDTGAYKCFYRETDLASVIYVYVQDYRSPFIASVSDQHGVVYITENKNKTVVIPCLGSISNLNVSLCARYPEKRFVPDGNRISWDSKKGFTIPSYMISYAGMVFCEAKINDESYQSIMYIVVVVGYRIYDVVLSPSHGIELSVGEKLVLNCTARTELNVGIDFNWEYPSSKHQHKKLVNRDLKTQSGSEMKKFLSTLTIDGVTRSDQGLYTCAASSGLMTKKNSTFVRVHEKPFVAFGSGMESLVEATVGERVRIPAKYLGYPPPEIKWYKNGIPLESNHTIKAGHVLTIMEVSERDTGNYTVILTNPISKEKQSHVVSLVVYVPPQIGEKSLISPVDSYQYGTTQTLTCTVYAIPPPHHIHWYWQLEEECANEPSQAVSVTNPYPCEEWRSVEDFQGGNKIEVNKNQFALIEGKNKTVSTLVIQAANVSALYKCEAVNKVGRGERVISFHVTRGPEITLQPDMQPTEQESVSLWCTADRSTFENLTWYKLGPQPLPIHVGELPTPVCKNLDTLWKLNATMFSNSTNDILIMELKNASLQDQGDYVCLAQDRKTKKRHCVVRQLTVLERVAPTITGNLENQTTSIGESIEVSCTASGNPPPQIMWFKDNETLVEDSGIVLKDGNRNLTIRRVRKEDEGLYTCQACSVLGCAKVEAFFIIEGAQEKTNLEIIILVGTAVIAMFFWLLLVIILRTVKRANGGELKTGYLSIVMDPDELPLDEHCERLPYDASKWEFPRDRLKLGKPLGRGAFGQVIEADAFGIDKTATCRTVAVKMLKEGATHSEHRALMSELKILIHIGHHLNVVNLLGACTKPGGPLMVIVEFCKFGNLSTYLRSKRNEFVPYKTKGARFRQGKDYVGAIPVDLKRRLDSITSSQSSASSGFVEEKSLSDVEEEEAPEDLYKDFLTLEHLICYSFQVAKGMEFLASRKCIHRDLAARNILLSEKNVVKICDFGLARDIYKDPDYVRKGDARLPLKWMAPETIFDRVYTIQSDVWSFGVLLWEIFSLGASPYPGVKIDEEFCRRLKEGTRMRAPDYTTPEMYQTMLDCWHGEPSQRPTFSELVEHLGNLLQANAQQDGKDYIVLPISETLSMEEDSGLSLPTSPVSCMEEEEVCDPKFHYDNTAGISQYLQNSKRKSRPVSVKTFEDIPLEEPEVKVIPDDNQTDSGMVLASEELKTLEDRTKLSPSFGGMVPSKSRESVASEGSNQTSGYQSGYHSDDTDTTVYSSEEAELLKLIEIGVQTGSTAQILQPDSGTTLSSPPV

Chain of EGFR^Wt (P00533 25-1210): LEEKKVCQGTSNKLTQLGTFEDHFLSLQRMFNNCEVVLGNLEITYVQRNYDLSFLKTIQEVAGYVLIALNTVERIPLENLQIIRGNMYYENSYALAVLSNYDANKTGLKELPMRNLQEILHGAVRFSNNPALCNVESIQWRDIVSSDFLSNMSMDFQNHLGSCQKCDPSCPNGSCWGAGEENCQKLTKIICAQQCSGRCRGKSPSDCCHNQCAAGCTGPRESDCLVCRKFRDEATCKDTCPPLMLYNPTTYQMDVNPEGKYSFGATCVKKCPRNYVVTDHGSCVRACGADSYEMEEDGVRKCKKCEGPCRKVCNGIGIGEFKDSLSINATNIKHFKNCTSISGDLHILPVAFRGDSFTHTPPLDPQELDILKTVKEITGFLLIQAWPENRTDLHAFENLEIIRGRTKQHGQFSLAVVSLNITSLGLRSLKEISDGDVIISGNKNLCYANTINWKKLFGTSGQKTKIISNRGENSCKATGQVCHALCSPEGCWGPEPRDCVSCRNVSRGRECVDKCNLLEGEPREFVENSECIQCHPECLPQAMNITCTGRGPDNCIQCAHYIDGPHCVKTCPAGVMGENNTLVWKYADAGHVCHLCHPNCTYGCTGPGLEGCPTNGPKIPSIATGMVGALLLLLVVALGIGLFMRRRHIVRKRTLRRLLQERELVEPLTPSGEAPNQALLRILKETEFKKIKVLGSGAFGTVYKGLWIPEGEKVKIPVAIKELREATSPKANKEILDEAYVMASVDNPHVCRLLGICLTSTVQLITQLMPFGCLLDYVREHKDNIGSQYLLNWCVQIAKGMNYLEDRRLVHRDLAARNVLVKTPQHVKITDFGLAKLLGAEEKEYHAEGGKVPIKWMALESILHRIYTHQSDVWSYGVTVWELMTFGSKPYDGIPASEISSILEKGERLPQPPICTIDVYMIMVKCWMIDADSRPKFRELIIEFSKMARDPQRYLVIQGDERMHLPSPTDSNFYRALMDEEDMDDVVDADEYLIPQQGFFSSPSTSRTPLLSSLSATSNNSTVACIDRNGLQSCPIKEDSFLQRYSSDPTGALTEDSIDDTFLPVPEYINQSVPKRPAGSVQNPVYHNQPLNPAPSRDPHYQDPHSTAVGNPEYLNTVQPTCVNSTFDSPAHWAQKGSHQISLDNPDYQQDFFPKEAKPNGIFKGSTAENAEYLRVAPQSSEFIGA

| Molecule | IC50 (HepG-2 cell line; Homo sapiens, HepG2, 24 h) [µM] | IC50 (Caco-2 cell line [1]; Homo sapiens, Caco-2, 24 h) [µM] | other results |
| --- | --- | --- | --- |
| CCOC(=O)c1ccc(-n2c(C)cc(C)c(C#N)c2=O)cc1 [Compound 2, ethyl 4-(3-cyano-4,6-dimethyl-2-oxopyridin-1(2H)-yl)benzoate] | 51.6 ± 2.9 | 41.5 ± 2.5 |  |
| CCOC(=O)c1ccc(-n2c(C)cc(/C=C/c3ccc(OC)cc3)c(C#N)c2=O)cc1 [Compound 3a, Ethyl (E)-4-(3-cyano-4-(4-methoxystyryl)-6-methyl-2-oxopyridin-1(2H)-yl)benzoate] | 78.2 ± 3.8 | 84.4 ± 4 |  |
| CCOC(=O)c1ccc(-n2c(C)cc(/C=C/c3ccc(OCC)cc3)c(C#N)c2=O)cc1 [Compound 3b, Ethyl (E)-4-(3-cyano-4-(4-ethoxystyryl)-6-methyl-2-oxopyridin-1(2H)-yl)benzoate] | 63.1 ± 3.4 | 75.7 ± 3.5 |  |
| CCOC(=O)c1ccc(NC(=O)C2=C3C(=Nc4ccccc43)NC2=O)cc1 [Compound 6, ethyl 4-(2-oxo-1,2-dihydropyrrolo[2,3-b]indole-3-carboxamido)benzoate] | 39.3 ± 2.5 | 45.4 ± 2.7 |  |
| CCOC(=O)c1ccc(N2C(N)=C(C#N)C3(C(=O)Nc4ccccc43)C(C#N)=C2O)cc1 (stereo not shown) [Compound 7, Ethyl 4-(2′-amino-3′,5′-dicyano-6′-hydroxy-2-oxo-1′H-spiro[indoline-3,4′-pyridin]-1′-yl)benzoate] | 8.9 ± 0.6 | 7.83 ± 0.5 | Cell cycle distribution, S phase (Caco-2 cell line [2]; untreated 31.18%): 42.07%; Cell cycle distribution, G0-G1 (Caco-2 cell line [2]; untreated 54.69%): 51.08%; Cell cycle distribution, G2/M (Caco-2 cell line [2]; untreated […]%): 6.85%; Early apoptosis, increase compared to the control (Caco-2 cells; Caco-2, at IC50): 67.60 folds; Late apoptosis, increase compared to the control (Caco-2 cells; Caco-2, at IC50): 100.11 folds; Apoptosis Late (Caco-2 cells; Caco-2, at IC50 for 24 h, control 0.17): 17.02%; Apoptosis Early (Caco-2 cells; Caco-2, at IC50 for 24 h, control 0.33): 22.31%; Necrosis (Caco-2 cells; Caco-2, at IC50 for 24 h, control 1.42): 3.02%; Apoptosis Total (Caco-2 cells; Caco-2, at IC50 for 24 h, control 1.92): 42.35%; IC50 (EGFR^Wt): < 0.25 µM and 0.124 µM; inhibition at 10 µM (EGFR^Wt): 88.4%; IC50 (VEGFR-2; Enzyme inhibitory activity IC50 VEGFR-2, average of three independent tests): 0.221 ± 0.009 µM; inhibition at 10 µM (VEGFR-2; read-out: VEGFR-2 Inhibitory%): 87% |
| CCOC(=O)C1=C(N)N(c2ccc(C(=O)OCC)cc2)C(O)=C(C#N)C12C(=O)Nc1ccccc12 (stereo not shown) [Compound 8, Ethyl 2′-amino-5′-cyano-1′-(4-(ethoxycarbonyl)phenyl)-6′-hydroxy-2-oxo-1′H spiro[indoline-3,4′-pyridine]-3′-carboxylate] | 8.42 ± 0.7 | 13.6 ± 1.2 |  |
| CCOC(=O)c1ccc(-n2c(N)c(C#N)c(CC#N)c(C#N)c2=O)cc1 [Compound 10, ethyl 4-(6-amino-3,5-dicyano-4-(cyanomethyl)-2-oxopyridin-1(2H)-yl)benzoate] | 25.2 ± 1.9 | 37.8 ± 2.3 |  |
| CCOC(=O)c1ccc(-n2c(-c3ccc(C)cc3)cc(-c3ccc(O)cc3)c(C#N)c2=O)cc1 [Compound 11, Ethyl 4-(3-cyano-4-(4-hydroxyphenyl)-2-oxo-6-(p-tolyl)pyridin-1(2H)-yl)benzoate] | 14.9 ± 1.2 | 19.2 ± 1.4 |  |
| COc1cccc2c1C(=O)c1c(O)c3c(c(O)c1C2=O)C[C@@](O)(C(=O)CO)C[C@@H]3O[C@H]1C[C@H](N)[C@H](O)[C@H](C)O1 [Doxorubicin, reference compound] | 4.5 ± 0.2 |  | IC50 (EGFR^Wt): 0.349 ± 0.016 µM; inhibition at 10 µM (EGFR^Wt): 77.6% |
| ethyl 4-(3′,5′-dicyano-2′,6′-dihydroxy-1,3-dioxo-1,3-dihydro-1′H-spiro[indene-2,4′-pyridin]-1′-yl)benzoate [Compound 5] |  |  | IC50 (HepG-2 cell line; MTT, 24 h incubation, HepG-2): 10.6 ± 0.8 µM; IC50 (Caco-2 cell line [1]; MTT, 24 h incubation, Caco-2): 9.78 ± 0.7 µM |
